Test results published in PubChem BioAssay (NCI).
Values joined by “and” are separate entries in the source; they are usually repeats but may differ in a detail not shown here. Equal values may be shown once.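 Compound exposure: 48 hours, 5 concentrations, 96-well plates. The concentration for 50% growth inhibition is given as GI50. TGI: concentration producing complete growth inhibition.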

Legend:
Experiment in all cases: DTP human tumour cell line panel, 48 h
KM12 colon = system: KM12 colon
NCI-H226 lung = system: NCI-H226 lung
OVCAR-4 ovarian = system: OVCAR-4 ovarian
UACC-62 melanoma = system: UACC-62 melanoma
K-562 leukemia = system: K-562 leukemia
PC-3 prostate = system: PC-3 prostate
SK-OV-3 ovarian = system: SK-OV-3 ovarian
TK-10 renal = system: TK-10 renal
CAKI-1 renal = system: CAKI-1 renal
RXF 393 renal = system: RXF 393 renal

| SMILES | GI50 (KM12 colon) | TGI (KM12 colon) | GI50 (NCI-H226 lung) | TGI (NCI-H226 lung) | GI50 (OVCAR-4 ovarian) | TGI (OVCAR-4 ovarian) | GI50 (UACC-62 melanoma) | TGI (UACC-62 melanoma) | GI50 (K-562 leukemia) | TGI (K-562 leukemia) | GI50 (PC-3 prostate) | TGI (PC-3 prostate) | GI50 (SK-OV-3 ovarian) | TGI (SK-OV-3 ovarian) | GI50 (TK-10 renal) | TGI (TK-10 renal) | GI50 (CAKI-1 renal) | TGI (CAKI-1 renal) | GI50 (RXF 393 renal) | TGI (RXF 393 renal) |
| --- | --- | --- | --- | --- | --- | --- | --- | --- | --- | --- | --- | --- | --- | --- | --- | --- | --- | --- | --- | --- |
| C[C@H](c1ccccc1)N(CCC(=O)O)C(=O)CCN(C(=O)CCN(C(=O)CCN[C@H](C)c1ccccc1)[C@H](C)c1ccccc1)[C@H](C)c1ccccc1 | > 100 µM | > 100 µM | > 100 µM | > 100 µM | > 100 µM | > 100 µM | > 100 µM | > 100 µM | > 100 µM | > 100 µM | > 100 µM | > 100 µM | > 100 µM | > 100 µM | > 100 µM | > 100 µM | > 100 µM | > 100 µM | > 100 µM | > 100 µM |
| CC(C)COC(c1ccc2c(c1)OCO2)C(C)Br (stereo not drawn) |  | 55 µM |  | 70.7 µM |  | > 100 µM |  | > 100 µM |  | > 100 µM |  | > 100 µM |  | 80 µM |  | > 100 µM |  | > 100 µM |  | 23.2 µM |
| CCN1C(=O)N(CC)C2C1NN=c1s/c(=C\c3ccc(OC)cc3)c(=O)n12 (stereo not drawn) | 0.0716 µM | > 100 µM | 1.72 µM |  | 0.614 µM | > 100 µM | 0.0704 µM | > 100 µM | 0.053 µM | > 100 µM | 0.14 µM | > 100 µM | 0.267 µM | 17.1 µM | > 33.5 µM | > 100 µM | 0.0577 µM | > 80.2 µM | 0.0789 µM | 47 µM |
| Oc1cccc(-c2nc(-c3ccccc3)[nH]c2-c2ccncc2)c1 | 13 µM | > 25 µM | > 19 µM | > 25 µM | 10.5 µM | > 25 µM | 1.59 µM | > 25 µM | 11.7 µM | > 25 µM | > 20.8 µM | > 25 µM | 9.29 µM | > 25 µM | 16.5 µM | > 25 µM | 18.7 µM | > 25 µM | 5 µM | 14.7 µM |
| COC(=O)c1ccc2c(C(=Nc3ccc(N(C)C(=O)CN4CCN(C)CC4)cc3)c3ccccc3)c(O)[nH]c2c1 | 0.066 µM and 0.073 µM | 2.05 µM and 1.98 µM | 2.35 µM and 1.82 µM | 24.5 µM and 59.9 µM | 5.17 µM and 13.1 µM | 59.6 µM and > 70.8 µM | 2.18 µM and 3.09 µM | 5.09 µM and 21.4 µM | 0.224 µM and 0.466 µM | > 100 µM | 5.2 µM and 25.6 µM | 53.2 µM and > 100 µM | 12.3 µM and > 57.6 µM | 44.1 µM and > 100 µM | 4.63 µM and 19.2 µM | 23.5 µM and > 100 µM | 4.28 µM and 11.9 µM | 25.3 µM and > 100 µM | 0.683 µM and 0.572 µM | 2.47 µM and 2.9 µM |
| CCOC(=O)c1cc(-c2ccccc2)[nH]c1N/N=C/c1c(Cl)cccc1Cl | 0.584 µM | 24.3 µM | 1.5 µM | 12.4 µM | 13.4 µM | > 100 µM | 2.03 µM | > 100 µM | 0.491 µM | 13.7 µM | 0.502 µM | 37.5 µM | 2.4 µM | > 100 µM | 13.2 µM | > 87.8 µM | 0.409 µM | 31.1 µM | 0.47 µM | 9.51 µM |
| O=c1[nH]c(SCc2ccccc2[N+](=O)[O-])nc2nc[nH]c12 |  | > 100 µM | 84.7 µM and 33.4 µM | > 100 µM and 98.3 µM | 30.3 µM and > 100 µM | > 100 µM |  | > 100 µM |  | > 100 µM |  | > 100 µM |  | > 100 µM |  | > 100 µM |  | > 100 µM |  | > 100 µM |
| CNCCNc1nc2ccccc2c2c(=O)c3cccc(C)c3sc12 | 1.11 µM | 2.88 µM | 7.19 µM | 16.7 µM | 2.1 µM | 8.75 µM | 1.15 µM | 3.39 µM | 1.04 µM | 2.33 µM | 1.55 µM | 8.7 µM |  |  |  |  | 1.16 µM | 6.73 µM | 3.08 µM | 9.72 µM |
| CCCc1n(Cc2ccc3ccccc3n2)cc[n+]1Cc1ccc2ccccc2n1 | 0.991 µM | 11.9 µM | 3.26 µM | 26.2 µM | 0.445 µM | 18.3 µM | 1.12 µM | 6.19 µM | 0.72 µM | 15.9 µM | 1.85 µM | 14.7 µM | 2.44 µM | 9.68 µM | 2.84 µM | 12.7 µM |  |  | 9.08 µM | 35.4 µM |
| N#Cc1ccc(/C=C/C(=O)c2ccccc2)cc1 | 1.79 µM and 1.83 µM | 3.46 µM and 3.54 µM | 27.2 µM and 15.3 µM | > 68.8 µM and 31 µM | 16.5 µM and 13.2 µM | 36.5 µM and 27 µM | 13.5 µM and 14 µM | 26.6 µM and 27.5 µM | 2.83 µM and 2.3 µM | > 26.2 µM | 13 µM and 10.7 µM | 31.4 µM and 26.6 µM | 17.3 µM and 20.2 µM | 33.2 µM and 44.9 µM | 14.2 µM and 12.1 µM | 28.2 µM and 26 µM | 15.1 µM and 9.59 µM | 29.6 µM and 22.8 µM | 7.15 µM and 5.93 µM | 19.3 µM and 18.2 µM |
| COc1ccc(/C=C2/CN(CCC#N)C/C(=C\c3ccc(OC)cc3)C2=O)cc1 | 1.72 µM | 3.83 µM | 21.3 µM | > 100 µM | 4.42 µM | > 100 µM | 1.66 µM | 3.81 µM | 3.28 µM | > 100 µM | 2.67 µM | > 100 µM | 5.24 µM | 51.8 µM | 3.21 µM | 7.91 µM | 2.82 µM | > 100 µM | 1.7 µM | 3.29 µM |
| CC(=O)C(C=O)C(C)=O.CC(=O)CC(C)=O.CC(=O)CC(C)=O.[Ru] | 27.2 µM | > 100 µM | 5.83 µM | 35.2 µM | 19.5 µM | > 100 µM | 0.589 µM | 19.1 µM | 20.7 µM | > 100 µM | 13.2 µM | 71.2 µM | 76.8 µM | > 100 µM | 38.9 µM | > 100 µM | 27.5 µM | 72.4 µM | 40.9 µM | > 100 µM |
| COc1cc(-c2nn(-c3cccc(NC(=O)CCN4CCN(C)CC4)c3)cc2-c2ccncc2)ccc1Cl | 1.36 µM | 4.59 µM | 3.67 µM | 22.3 µM | 1.73 µM | 11.4 µM | 1.04 µM | 2.66 µM | 0.73 µM | 2.53 µM | 0.995 µM | 3.68 µM | 1.81 µM | 7.34 µM | 3.8 µM | 14.6 µM |  |  | 1.09 µM | 2.77 µM |
